For assay [1], the target named is T1, Tyrosine-protein phosphatase non-receptor type 1 (Homo sapiens, UniProt P18031).
T1 sequence (P18031 whole entry): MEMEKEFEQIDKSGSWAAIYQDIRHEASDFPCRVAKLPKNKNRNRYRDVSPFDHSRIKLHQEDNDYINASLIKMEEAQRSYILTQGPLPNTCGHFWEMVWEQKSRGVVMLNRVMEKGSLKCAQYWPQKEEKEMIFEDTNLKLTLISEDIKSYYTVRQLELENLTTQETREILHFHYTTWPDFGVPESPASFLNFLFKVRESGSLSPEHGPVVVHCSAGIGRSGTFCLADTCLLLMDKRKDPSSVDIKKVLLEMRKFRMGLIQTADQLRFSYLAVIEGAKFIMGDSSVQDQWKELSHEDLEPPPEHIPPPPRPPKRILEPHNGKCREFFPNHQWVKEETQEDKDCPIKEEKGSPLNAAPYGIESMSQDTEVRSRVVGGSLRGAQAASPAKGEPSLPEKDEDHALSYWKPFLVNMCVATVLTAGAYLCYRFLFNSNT
The assay can be described thus: Inhibition of GST-tagged PTP1B (unknown origin) using pNPP as substrate measured for 3 mins by colorimetric assay.

For assay [2], the target named is T2, Tyrosine-protein phosphatase non-receptor type 11 (Homo sapiens, UniProt Q06124).
T2 sequence (Q06124 whole entry): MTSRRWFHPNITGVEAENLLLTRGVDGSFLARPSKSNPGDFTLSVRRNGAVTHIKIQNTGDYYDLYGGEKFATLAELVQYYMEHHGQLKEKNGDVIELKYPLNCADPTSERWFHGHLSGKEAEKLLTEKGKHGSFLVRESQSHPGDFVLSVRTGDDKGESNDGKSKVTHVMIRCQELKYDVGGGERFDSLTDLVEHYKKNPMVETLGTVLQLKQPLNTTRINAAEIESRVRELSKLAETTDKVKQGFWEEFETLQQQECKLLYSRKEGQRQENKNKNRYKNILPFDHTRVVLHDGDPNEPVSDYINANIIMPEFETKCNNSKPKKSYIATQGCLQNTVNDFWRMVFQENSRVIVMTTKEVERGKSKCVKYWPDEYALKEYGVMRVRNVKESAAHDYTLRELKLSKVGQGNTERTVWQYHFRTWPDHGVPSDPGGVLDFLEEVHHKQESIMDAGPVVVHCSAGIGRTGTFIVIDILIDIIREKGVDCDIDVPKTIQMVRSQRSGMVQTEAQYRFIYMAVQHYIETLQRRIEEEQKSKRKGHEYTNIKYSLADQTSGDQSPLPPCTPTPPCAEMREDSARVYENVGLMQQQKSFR
In words: Inhibition of SHP2 (unknown origin) using 3-o-methylfluorescein phosphate as substrate by fluorescence assay.

Assay [3] deals with T3, Tyrosine-protein phosphatase non-receptor type 11 (Homo sapiens) (UniProt Q06124).
T3 sequence (whole entry): T2 sequence (Q06124 whole entry)
The assay can be described thus: Inhibition of SHP2 (unknown origin) at 20 ug/ml using 3-o-methylfluorescein phosphate as substrate by fluorescence assay relative to control.

The species named for assay [4] is Homo sapiens. The assay can be described thus: Selectivity index, ratio of IC50 for SHP1 (unknown origin) to IC50 for SHP2 (unknown origin).
The species named for assay [5] is Homo sapiens. In words: Selectivity index, ratio of IC50 for SHP2 (unknown origin) to IC50 for GST-tagged TCPTP (unknown origin).
Assay [6] addresses T3, Tyrosine-protein phosphatase non-receptor type 11 (Homo sapiens). In words: Fast binding inhibition of SHP2 (unknown origin) using DiFMUP as substrate by enzyme kinetics assay.
The target is the same in assay [7]. The assay can be described thus: Reversible inhibition of SHP2 (unknown origin) using DiFMUP as substrate by enzyme kinetics based dialysis assay.
The target is the same in assay [8]. In words: Competitive inhibition of SHP2 (unknown origin) assessed as increase in Km with constant Vmax using DiFMUP as substrate by Lineweaver-Burk plot analysis.
Assay [9] has as its target T4, Tyrosine-protein phosphatase non-receptor type 2 (Homo sapiens, UniProt P17706).
T4 sequence (P17706 whole entry): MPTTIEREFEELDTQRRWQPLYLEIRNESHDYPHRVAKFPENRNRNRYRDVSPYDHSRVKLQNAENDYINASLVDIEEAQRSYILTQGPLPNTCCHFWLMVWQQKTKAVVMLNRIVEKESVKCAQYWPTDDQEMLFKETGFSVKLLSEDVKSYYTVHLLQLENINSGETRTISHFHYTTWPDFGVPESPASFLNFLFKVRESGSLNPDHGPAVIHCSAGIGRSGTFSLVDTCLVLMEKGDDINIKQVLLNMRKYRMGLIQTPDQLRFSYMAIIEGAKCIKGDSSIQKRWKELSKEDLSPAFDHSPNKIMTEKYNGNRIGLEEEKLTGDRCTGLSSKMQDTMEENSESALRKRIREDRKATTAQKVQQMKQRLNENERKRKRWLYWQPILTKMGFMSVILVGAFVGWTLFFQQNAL
In words: Inhibition of GST-tagged TCPTP (unknown origin) using pNPP as substrate measured for 3 mins by colorimetric assay.

For assay [10], the target named is T5, Tyrosine-protein phosphatase non-receptor type 1 (Homo sapiens) (UniProt P18031).
T5 sequence (whole entry): T1 sequence (P18031 whole entry)
In words: Inhibition of GST-tagged PTP1B (unknown origin) at 20 ug/ml using pNPP as substrate measured for 3 mins by colorimetric assay relative to control.

For assay [11], the target named is Tyrosine-protein phosphatase non-receptor type 6 (Homo sapiens) (UniProt P29350). The assay can be described thus: Inhibition of SHP1 (unknown origin) at 20 ug/ml using 3-o-methylfluorescein phosphate as substrate by fluorescence assay relative to control.
Tyrosine-protein phosphatase non-receptor type 6 (Homo sapiens), sequence (P29350 whole entry): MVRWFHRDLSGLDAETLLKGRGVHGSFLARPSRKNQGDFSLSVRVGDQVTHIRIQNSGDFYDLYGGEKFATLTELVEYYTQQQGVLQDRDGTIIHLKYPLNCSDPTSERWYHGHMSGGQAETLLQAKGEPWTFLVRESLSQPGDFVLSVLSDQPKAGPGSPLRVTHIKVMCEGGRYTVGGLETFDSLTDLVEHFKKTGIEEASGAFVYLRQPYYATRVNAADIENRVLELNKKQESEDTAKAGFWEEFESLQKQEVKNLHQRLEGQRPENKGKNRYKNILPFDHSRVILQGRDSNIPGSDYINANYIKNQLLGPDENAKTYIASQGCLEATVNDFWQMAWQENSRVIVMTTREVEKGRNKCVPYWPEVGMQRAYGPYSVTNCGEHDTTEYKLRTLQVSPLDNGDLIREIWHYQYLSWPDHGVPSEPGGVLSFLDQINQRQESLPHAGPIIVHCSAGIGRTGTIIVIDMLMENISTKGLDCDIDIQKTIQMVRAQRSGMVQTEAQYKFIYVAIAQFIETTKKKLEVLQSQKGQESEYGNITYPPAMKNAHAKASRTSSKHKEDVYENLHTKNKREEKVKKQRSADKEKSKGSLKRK

Activity calls are given as the source filed them. The rule behind the calls is not given here. Some results are limits rather than exact numbers.

A word on the IC50: it is the concentration at which inhibition is half-maximal. A higher IC50 goes with lower potency. One may read the inhibition as the share of the control response that was lost under treatment.

Consider `O=C(NC1CCCCC1)c1ccc(-c2ccc(C(=O)NC3CCCCC3)s2)cc1`, for which the half-inhibitory concentration (IC50) came out at 4.88 µM in assay [1] and 10.7 µM in [2].

As to `O=C(Nc1ccccc1)c1ccc(-c2ccc(C(=O)Nc3ccccc3)s2)cc1`, the IC50 in [1] was 3.52 µM; in assay [2], 5.75 µM.

With `O=C(Nc1ccccc1)c1ccc(-c2ccc(C(=O)Nc3ccccc3)o2)cc1`, the values for the IC50 in assay [1] and in [2] were 3.48 µM and 4.63 µM, respectively.

In assay [1], `O=C(Nc1ccc(F)cc1)c1ccc(-c2ccc(C(=O)Nc3ccc(F)cc3)o2)cc1` yielded an IC50 of 10.5 µM. In addition, the inhibition in assay [3] is under 50%.

With `O=C(Nc1ccccc1)c1ccc(-c2ncc(C(=O)Nc3ccccc3)s2)cc1`, the IC50 in assay [1] stood at 7.94 µM. The inhibition in [3] was under 50%.

For SODIUM ORTHOVANAD, the Ratio IC50 in the assay filed under Homo sapiens [4] turned out to be 1.92.

With `O=C(Nc1ccc(F)cc1)c1ccc(-c2ccc(C(=O)Nc3ccc(F)cc3)s2)cc1`, the values for the Ratio IC50 in the assay listed under Homo sapiens [5] and in the assay filed under Homo sapiens [4] were 4 and over 43.8, respectively. Also, the inhibition entry in assay [6], in assay [7] and in [8] was “Active” throughout. For the same molecule, the values for the IC50 in assay [2] and in assay [9] were 2.63 µM and 9.16 µM, respectively. Further, the inhibition in assay [10] and in assay [11] was under 50% throughout.

For the molecule `O=C(Nc1ccc(F)cc1)c1ccc(-c2ccc(C(=O)Nc3ccc(F)cc3)[nH]2)cc1`, the IC50 is 28.3 µM in assay [1] and 20.3 µM in [2].

In the case of `O=C(Nc1ccccc1)c1ccc(-c2ccc(C(=O)Nc3ccccc3)[nH]2)cc1`, in assay [1], the 50% inhibitory concentration (IC50) came to 23.4 µM. The inhibition in assay [3] was under 50%.

For the molecule `O=C(Nc1ccc(Cl)cc1)c1ccc(-c2ccc(C(=O)Nc3ccc(Cl)cc3)o2)cc1`, half-maximal inhibition in assay [1] (IC50) required 15.7 µM. The inhibition in [3] is under 50%.

Take `O=C(Nc1ccc(F)cc1)c1ccc(-c2ncc(C(=O)Nc3ccc(F)cc3)s2)cc1`: the IC50 in assay [2] turned out to be 4.63 µM. Further, the inhibition in assay [10] was under 50%.

On to `O=C(NC1CCCCC1)c1ccc(-c2ccc(C(=O)NC3CCCCC3)o2)cc1`, for which the inhibition in [3] and in [10] was under 50% each time.

The values above are taken from ChEMBL document CHEMBL4619739, “Synthesis and biological evaluation of heterocyclic bis-aryl amides as novel Src homology 2 domain containing protein tyrosine phosphatase-2 (SHP2) inhibitors” (Bioorg Med Chem Lett, 2020).
